Laboratory results reported in patent publication US4233304A, “Pyridoxine derivatives” (Crinos Industria Farmacobiologica S.p.A., priority 1978, dated 1980).

Columns and labels:
[1] = Anti-inflammatory activity, caraganin-edema test according to Winter et al; format: in vivo; settings: rat, vs controls
Source text: As referred above, the inventive compound of the instant invention show anti-inflammatory activity and moreover may show, although not necessarily, also analgesic and/or anti-pyretic activity. The anti-inflammatory activity of the novel compounds of the instant invention has been confirmed by means of the caraganin-edema test on the rat.
Caraganin-edema test according to Winter et al (Proc. Soc. Exp. Biol. Med., 111, 544, 1962) in the normal rat. […]

[2] = Analgesic activity, test of Randall and Selitto; format: in vivo; settings: rat, variation from algogenic stimulus vs controls
Method: Test of Randall and Selitto (Arch. Ing. Pharmacodyn., 111, 409, 1957) on the rat. The analgesic activity is expressed as a percent variation from the algogenic stimulus, after 3 and 5 hours with respect to the controls.

in vivo = settings: rat, po
Method: The ulcer-causing activity has been determined by administering the substances per os to rats which have fasted 18 hours and evaluating the presence of gastric lesions 7 hours after the treatment. The UD50 has been determined according to Litchfield and Wilcoxon (J. Pharmacol. Exp. Ther. 96, 99, 1949).

[3] = Acute toxicity per os, single dose, LD50; settings: mouse, in vivo, po
Method: The acute toxicity has been determined by administering the substances per os in a sole dose to the mouse after 18 hours of fasting. The LD50 has been determined according to Litchfield and Wilcoxon (J. Pharmacol. Exp. Ther. 96, 99, 1949).

mouse = settings: footnote (1) Adams S.S. et al., Tox. Appl. Pharmacol., 15, 310, 1969; cited from earlier work

Row | Compound | Anti-inflammatory Inhibition ([1]; 6.25 mg/kg per os, 3 hrs) [%] | Anti-inflammatory Inhibition ([1]; 6.25 mg/kg per os, 5 hrs) [%] | Anti-inflammatory Inhibition ([1]; 12.5 mg/kg per os, 3 hrs) [%] | Anti-inflammatory Inhibition ([1]; 12.5 mg/kg per os, 5 hrs) [%] | Anti-inflammatory Inhibition ([1]; 25 mg/kg per os, 3 hrs) [%] | Anti-inflammatory Inhibition ([1]; 25 mg/kg per os, 5 hrs) [%] | Anti-inflammatory Inhibition ([1]; 50 mg/kg per os, 3 hrs) [%] | Anti-inflammatory Inhibition ([1]; 50 mg/kg per os, 5 hrs) [%] | Analgesic activity Variation ([2]; 12.5 mg/kg per os, 3 hrs) | Analgesic activity Variation ([2]; 12.5 mg/kg per os, 5 hrs) | Analgesic activity Variation ([2]; 50 mg/kg per os, 3 hrs) | Analgesic activity Variation ([2]; 50 mg/kg per os, 5 hrs) | TD50 at 7 h (in vivo) [mg/kg] | LD50 [3] [mg/kg] | Anti-inflammatory Inhibition ([1]; 100 mg/kg per os, 3 hrs) [%] | Anti-inflammatory Inhibition ([1]; 100 mg/kg per os, 5 hrs) [%] | LD50 per os/mouse (mouse) [mg/kg]
1 | Cc1ncc(COC(=O)C(C)c2ccc(CC(C)C)cc2)c(CO)c1O (stereo not drawn) [2-(4-isobutyl-phenyl)-propionic pyridoxine 5-ester] | 27.1 | 24.8 | 41.1 | 28.4 | 48.6 | 37.6 | 55.1 | 42 | +61.2% | +71.4% | +129.6% | +134.3% | 365 | > 2000 | – | – | –
2 | CC(C)Cc1ccc(C(C)C(=O)O)cc1 (stereo not drawn) [2-(4-isobutylphenyl)-propionic acid, reference compound] | – | – | 33.6 | 16.5 | 43.9 | 19.3 | 54.2 | 26.6 | +86.7% | +83.8% | +146.9% | +69.5% | 38 | – | 49.5 | 32.1 | 800
3 | Cc1ncc(COC(=O)C(C)c2ccc(CC(C)C)cc2)c2c1OC(C)(C)OC2 (stereo not drawn) [2-(4-isobutylphenyl)-propionic isopropylidenepyridoxine 5-ester] | – | – | 19.6 | 18.3 | 13.1 | 12.8 | 43.9 | 39.4 | +77.5% | +39.0% | +122.5% | +78.1% | > 400 | > 2200 | 60.7 | 42.2 | –
